Measured values as given in ChEMBL document CHEMBL3879915, “Methods of inhibiting PRMT5” (2014).

What was measured:
[1] = Antiproliferative activity against human Z138 cells assessed as inhibition of cell viability after 5 days by Cell-Titer Glo assay; type: functional, cell-based; details: Z-138, 120 h
[2] = target: Protein arginine N-methyltransferase 5 (Homo sapiens, UniProt O14744); assay: Inhibition of PRMT5 in human Z138 cells assessed as decrease in di-methyl arginine levels after 96 hrs by Western blot method; type: cell-based
PRMT5/MEP50 complex = PRMT5/MEP50 complex (Homo sapiens, UniProt O14744); assay: Inhibition of recombinant human fetal brain FLAG-tagged PRMT5/full length human testis 6His-tagged MEP50 expressed in baculovirus infected insect Sf9 cells using human histone H4 (1 to 15 residues) as substrate preincubated for 30 mins followed by [3H]-SAM addition
Sequence of PRMT5/MEP50 complex (O14744 whole entry, the tested form may be a part): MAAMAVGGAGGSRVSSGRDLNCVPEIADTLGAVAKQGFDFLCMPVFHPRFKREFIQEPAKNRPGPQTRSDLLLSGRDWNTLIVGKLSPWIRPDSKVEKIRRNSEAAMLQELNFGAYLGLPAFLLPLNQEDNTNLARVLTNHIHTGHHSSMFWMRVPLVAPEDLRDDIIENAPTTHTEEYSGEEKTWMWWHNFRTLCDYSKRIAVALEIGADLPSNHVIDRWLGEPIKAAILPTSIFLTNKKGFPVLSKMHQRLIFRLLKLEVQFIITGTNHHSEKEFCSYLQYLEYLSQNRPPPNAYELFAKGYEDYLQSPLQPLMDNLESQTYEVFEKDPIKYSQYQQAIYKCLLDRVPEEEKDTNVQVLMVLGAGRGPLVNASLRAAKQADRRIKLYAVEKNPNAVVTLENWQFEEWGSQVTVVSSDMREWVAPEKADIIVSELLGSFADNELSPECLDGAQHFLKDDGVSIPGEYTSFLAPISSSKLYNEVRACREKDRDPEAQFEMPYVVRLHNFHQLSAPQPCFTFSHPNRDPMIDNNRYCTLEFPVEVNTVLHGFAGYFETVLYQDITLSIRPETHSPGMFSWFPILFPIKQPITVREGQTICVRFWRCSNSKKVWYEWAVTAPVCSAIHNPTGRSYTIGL
Sequence of PRMT5/MEP50 complex (Q9BQA1 whole entry, further chain, the tested form may be a part): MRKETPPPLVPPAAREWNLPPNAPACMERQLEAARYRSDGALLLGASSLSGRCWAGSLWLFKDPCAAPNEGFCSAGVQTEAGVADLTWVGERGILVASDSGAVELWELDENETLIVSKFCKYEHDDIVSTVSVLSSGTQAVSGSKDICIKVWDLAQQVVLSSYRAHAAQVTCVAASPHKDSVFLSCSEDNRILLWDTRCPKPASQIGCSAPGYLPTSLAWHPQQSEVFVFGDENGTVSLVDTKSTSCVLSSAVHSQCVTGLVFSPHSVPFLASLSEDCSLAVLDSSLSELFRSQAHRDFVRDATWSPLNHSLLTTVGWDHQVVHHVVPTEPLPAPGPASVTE

Sequence of Protein arginine N-methyltransferase 5 (O14744 whole entry, the tested form may be a part): as the sequence (O14744 whole entry, the tested form may be a part) above

| EC50 [2] | IC50 (PRMT5/MEP50 complex) | SMILES | EC50 [1] |
| --- | --- | --- | --- |
| 0.101 to 1 µM | < 0.1 µM | Cn1cnc2ccc(-c3ccnc(NC[C@H](O)CN4CCc5ccccc5C4)c3)cc21 | 1 to 10 µM |
| 0.101 to 1 µM | < 0.1 µM | OC(CNc1cc(-c2ccc3ncn(C4COC4)c3c2)ccn1)CN1CCc2ccccc2C1 (stereo unspecified) | 1 to 10 µM |
| 0.101 to 1 µM | < 0.1 µM | C[C@@H](Oc1cccc2cccnc12)C(=O)NC[C@H](O)CN1Cc2ccccc2C1 | 1 to 10 µM |
| 1 to 10 µM | < 0.1 µM | Cc1ncc2ccc(-c3cccc(OCC(O)CN4CCc5ccccc5C4)c3)cn12 (stereo unspecified) | 1 to 10 µM |
| 0.101 to 1 µM | < 0.1 µM | O=C(COc1cccc2cccnc12)NC[C@H](O)CN1Cc2ccccc2C1 | 1 to 10 µM |
| 0.101 to 1 µM | < 0.1 µM | CN(C)S(=O)(=O)c1ccccc1OCC(=O)NCC(O)CN1Cc2ccccc2C1 (stereo unspecified) | 1 to 10 µM |
| 1 to 10 µM | 0.101 to 1 µM | O=C(COc1cccc2cccnc12)NCC(O)CN1Cc2ccccc2C1 (stereo unspecified) | > 20 µM |
| 0.101 to 1 µM | 0.101 to 1 µM | Cn1cnc2ccc(-c3cc(NCC(O)CN4CCc5ccccc5C4)n[nH]3)cc21 (stereo unspecified) | > 20 µM |
| 0.101 to 1 µM | 0.101 to 1 µM | O=C(COc1ccccc1-c1cc[nH]n1)NCC(O)CN1Cc2ccccc2C1 (stereo unspecified) | > 20 µM |
| 1 to 10 µM | 0.101 to 1 µM | O=C(NCC(O)CN1Cc2ccccc2C1)c1cccc(-c2ccccn2)c1 (stereo unspecified) | > 20 µM |
| 0.101 to 1 µM | < 0.1 µM | CC(=O)N(CC(O)CN1CCc2ccccc2C1)c1cccc(-c2ccc3ncn(C)c3c2)c1 (stereo unspecified) | 10 to 40 µM |
| 0.101 to 1 µM | 0.101 to 1 µM | Cn1cnc2cc(-c3cc(NCC(O)CN4CCc5ccccc5C4)n[nH]3)ccc21 (stereo unspecified) | 1 to 10 µM |
| 1 to 10 µM | 0.101 to 1 µM | O=C(Cn1cnc2ccc(-c3cccc(OCC(O)CN4CCc5ccccc5C4)c3)cc21)N1CCOCC1 (stereo unspecified) | 1 to 10 µM |
| 0.101 to 1 µM | 0.101 to 1 µM | CN1CCN(C(=O)Cn2cnc3ccc(-c4cccc(OCC(O)CN5CCc6ccccc6C5)c4)cc32)CC1 (stereo unspecified) | 10 to 40 µM |
| 0.101 to 1 µM | < 0.1 µM | OC(COc1cccc(-c2ccc3ncn(C4COC4)c3c2)c1)CN1CCc2ccccc2C1 (stereo unspecified) | 10 to 40 µM |
| 0.101 to 1 µM | 0.101 to 10 µM | C[C@H](Oc1cccc2cccnc12)C(=O)NC[C@@H](O)CN1Cc2ccccc2C1 | > 20 µM |
| 1 to 10 µM | 0.101 to 1 µM | Cn1cnc2ccc(-c3ccnc(NC[C@@H](O)CN4CCc5ccccc5C4)c3)cc21 | 1 to 10 µM |
